The term inhibition denotes the drop in the measured response relative to a control, in per cent.

Like-named read-outs stand apart in the source and are kept apart here.

What all share (experiment): SelectScreen Z-LYTE kinase activity assay (SI Table 6)
Common to all, as to assay type: biochemical

Test [1] has as its target T1, protein kinases of the Z-LYTE panel (Homo sapiens, UniProt Q9UQB9).
T1 sequence (Q9UQB9 1-309): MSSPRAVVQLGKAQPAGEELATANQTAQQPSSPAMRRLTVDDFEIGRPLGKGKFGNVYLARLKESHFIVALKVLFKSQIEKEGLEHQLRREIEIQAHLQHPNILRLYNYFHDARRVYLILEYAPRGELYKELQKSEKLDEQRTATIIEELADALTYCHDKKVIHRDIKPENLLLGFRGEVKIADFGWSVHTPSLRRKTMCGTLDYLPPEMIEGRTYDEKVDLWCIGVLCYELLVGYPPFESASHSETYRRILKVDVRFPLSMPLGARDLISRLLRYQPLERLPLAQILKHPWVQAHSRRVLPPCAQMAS
The essentials: (§1)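 Compound 1938 counterscreened at 1 μM against 133 protein and 7 lipid kinases in the SelectScreen panel, using Adapta, LanthaScreen binding and Z-LYTE formats as applicable.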

In test [2] the target is T2, protein kinases of the Z-LYTE panel (Homo sapiens, UniProt Q06418).
T2 sequence (Q06418 41-890): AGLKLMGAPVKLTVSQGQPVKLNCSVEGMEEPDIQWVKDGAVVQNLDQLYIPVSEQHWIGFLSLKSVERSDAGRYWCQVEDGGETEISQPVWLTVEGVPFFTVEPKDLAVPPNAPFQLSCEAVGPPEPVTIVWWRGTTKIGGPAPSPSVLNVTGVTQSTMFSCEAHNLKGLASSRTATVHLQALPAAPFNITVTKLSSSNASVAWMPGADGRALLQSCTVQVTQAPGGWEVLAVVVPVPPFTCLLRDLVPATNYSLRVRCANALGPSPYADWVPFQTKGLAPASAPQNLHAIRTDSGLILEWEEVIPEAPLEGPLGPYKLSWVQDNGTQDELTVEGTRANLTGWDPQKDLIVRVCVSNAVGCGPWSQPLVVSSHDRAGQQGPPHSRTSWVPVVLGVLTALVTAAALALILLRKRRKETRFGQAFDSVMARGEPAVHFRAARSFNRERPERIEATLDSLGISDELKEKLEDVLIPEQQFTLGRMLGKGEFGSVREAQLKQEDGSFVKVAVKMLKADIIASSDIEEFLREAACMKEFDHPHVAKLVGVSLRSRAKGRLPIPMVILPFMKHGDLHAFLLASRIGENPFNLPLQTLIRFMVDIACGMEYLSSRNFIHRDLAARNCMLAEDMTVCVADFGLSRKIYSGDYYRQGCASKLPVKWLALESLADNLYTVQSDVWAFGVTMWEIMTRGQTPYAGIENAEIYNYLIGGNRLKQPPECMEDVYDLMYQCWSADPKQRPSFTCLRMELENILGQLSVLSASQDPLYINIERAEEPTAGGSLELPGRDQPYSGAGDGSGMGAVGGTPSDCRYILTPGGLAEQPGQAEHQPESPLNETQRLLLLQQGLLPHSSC
The essentials: as §1

The target of test [3] is protein kinases of the Z-LYTE panel (Homo sapiens, UniProt P54756). The essentials:
as §1

The target in test [4] is T3, protein kinases of the Z-LYTE panel (Homo sapiens, UniProt Q9NWZ3).
T3 sequence (Q9NWZ3 1-460): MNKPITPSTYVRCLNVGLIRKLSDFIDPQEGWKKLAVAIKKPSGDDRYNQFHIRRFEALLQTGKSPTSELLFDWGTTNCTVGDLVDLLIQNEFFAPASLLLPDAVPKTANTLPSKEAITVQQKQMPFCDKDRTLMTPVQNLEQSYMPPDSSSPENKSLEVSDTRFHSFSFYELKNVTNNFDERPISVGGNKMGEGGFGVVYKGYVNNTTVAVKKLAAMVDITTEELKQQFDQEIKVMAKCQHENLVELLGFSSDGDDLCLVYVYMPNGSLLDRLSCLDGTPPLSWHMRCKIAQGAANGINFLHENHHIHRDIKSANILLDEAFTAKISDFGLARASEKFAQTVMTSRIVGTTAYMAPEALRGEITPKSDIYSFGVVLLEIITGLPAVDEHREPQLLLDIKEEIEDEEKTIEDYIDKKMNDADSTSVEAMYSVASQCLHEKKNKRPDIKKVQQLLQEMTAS
In outline:
as §1

In test [5] the target is protein kinases of the Z-LYTE panel (Homo sapiens, UniProt Q8N4C8). In outline: as §1
Sequence of protein kinases of the Z-LYTE panel (Homo sapiens, UniProt Q8N4C8) (Q8N4C8 whole entry): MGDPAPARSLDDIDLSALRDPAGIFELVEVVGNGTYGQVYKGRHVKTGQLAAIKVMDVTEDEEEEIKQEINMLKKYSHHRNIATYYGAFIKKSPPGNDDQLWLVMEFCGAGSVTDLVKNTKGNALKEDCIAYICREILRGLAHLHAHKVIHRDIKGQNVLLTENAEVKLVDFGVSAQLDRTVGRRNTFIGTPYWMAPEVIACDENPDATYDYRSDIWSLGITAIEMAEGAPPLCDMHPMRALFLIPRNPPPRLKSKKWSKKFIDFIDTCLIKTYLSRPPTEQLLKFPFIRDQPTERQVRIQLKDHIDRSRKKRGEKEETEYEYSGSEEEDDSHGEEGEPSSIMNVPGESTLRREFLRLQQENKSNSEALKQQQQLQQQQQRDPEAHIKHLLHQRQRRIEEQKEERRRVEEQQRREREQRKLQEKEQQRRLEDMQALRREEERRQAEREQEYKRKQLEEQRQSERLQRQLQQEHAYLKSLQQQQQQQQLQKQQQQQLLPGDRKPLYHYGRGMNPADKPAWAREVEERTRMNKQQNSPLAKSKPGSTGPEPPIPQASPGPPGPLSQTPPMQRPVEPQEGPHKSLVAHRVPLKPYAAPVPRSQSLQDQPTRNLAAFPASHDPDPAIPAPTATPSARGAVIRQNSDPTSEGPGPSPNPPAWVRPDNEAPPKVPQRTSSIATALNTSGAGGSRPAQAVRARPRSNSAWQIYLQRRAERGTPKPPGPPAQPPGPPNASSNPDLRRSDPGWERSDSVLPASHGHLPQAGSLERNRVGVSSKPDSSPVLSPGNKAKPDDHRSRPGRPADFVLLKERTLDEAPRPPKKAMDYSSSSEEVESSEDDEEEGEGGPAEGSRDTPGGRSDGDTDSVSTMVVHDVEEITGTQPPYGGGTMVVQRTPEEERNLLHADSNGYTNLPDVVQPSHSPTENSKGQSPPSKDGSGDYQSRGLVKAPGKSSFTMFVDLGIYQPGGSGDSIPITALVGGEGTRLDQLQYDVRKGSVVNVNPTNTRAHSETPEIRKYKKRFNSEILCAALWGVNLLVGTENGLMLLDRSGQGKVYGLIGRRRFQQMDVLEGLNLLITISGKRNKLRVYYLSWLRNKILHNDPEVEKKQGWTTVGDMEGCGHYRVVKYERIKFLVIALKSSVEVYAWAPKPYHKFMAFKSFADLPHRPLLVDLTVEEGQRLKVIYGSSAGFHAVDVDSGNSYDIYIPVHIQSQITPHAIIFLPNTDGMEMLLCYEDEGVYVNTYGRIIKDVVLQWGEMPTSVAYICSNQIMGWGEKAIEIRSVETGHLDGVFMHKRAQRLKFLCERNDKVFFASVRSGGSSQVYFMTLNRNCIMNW

Sequence of protein kinases of the Z-LYTE panel (Homo sapiens, UniProt P54756) (P54756 25-1037): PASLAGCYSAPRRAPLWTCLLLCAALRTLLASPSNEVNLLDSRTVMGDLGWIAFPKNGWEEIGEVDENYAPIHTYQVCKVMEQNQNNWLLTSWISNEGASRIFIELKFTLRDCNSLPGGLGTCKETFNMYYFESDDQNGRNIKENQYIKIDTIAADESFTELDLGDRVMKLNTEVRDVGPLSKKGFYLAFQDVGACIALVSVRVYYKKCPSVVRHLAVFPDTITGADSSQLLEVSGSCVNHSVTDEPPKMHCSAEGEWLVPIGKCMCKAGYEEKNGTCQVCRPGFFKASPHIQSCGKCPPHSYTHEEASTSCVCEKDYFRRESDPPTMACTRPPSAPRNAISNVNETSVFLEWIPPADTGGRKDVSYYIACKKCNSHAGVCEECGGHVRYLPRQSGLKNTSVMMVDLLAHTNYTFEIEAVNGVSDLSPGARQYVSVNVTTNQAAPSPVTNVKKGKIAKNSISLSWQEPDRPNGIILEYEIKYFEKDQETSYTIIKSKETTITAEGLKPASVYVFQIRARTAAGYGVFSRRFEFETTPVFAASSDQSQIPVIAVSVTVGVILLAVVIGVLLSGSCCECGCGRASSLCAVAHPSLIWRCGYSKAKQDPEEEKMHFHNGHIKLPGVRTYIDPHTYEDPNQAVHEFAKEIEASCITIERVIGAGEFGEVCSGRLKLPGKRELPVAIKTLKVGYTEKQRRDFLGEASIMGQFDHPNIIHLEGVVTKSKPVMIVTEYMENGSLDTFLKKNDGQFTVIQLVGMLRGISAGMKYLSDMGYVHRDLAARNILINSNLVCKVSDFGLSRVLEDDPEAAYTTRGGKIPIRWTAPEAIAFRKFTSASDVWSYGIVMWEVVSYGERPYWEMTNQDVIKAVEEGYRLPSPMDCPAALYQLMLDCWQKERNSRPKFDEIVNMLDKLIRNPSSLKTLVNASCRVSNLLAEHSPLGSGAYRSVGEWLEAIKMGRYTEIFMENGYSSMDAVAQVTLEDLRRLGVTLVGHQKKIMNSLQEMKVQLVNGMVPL

`CCN1CCN(c2ccc(Nc3cc(Nc4cccc5c4N(C(C)=O)CC5)ccn3)cc2)CC1` [Compound 1938]: the inhibition at 1 µM came to 39% in test [1] (read-out: % Inhibition Point 1); 35% in test [1] (read-out: % Inhibition Point 2); 37% in test [1] (read-out: % Inhibition mean); 8% in test [2] (read-out: % Inhibition Point 1); 7.56% in test [2] (read-out: % Inhibition Point 2); 7.59% in test [2] (read-out: % Inhibition mean). Also, the inhibition at 1 µM was 4.24% in test [3] (read-out: % Inhibition Point 1); 1.52% in test [3] (read-out: % Inhibition Point 2); 3% in test [3] (read-out: % Inhibition mean); -0.0182% in test [4] (read-out: % Inhibition Point 1); -2.21% in test [4] (read-out: % Inhibition Point 2); -1.11% in test [4] (read-out: % Inhibition mean). In addition, the inhibition at 1 µM came to 28% in test [5] (read-out: % Inhibition Point 1), 31% in test [5] (read-out: % Inhibition Point 2) and 30% in test [5] (read-out: % Inhibition mean).

Values taken from PMC7614683, “A small molecule PI3Kα activator for cardioprotection and neuroregeneration” (Nature, 2023).
